Results from patent publication US9700547B2, “Use of 6-hydroxy-2-pyridones and derivatives thereof for preparing a pharmaceutical composition that acts by inhibiting the human uridine phosphorylase enzyme” (UNIÃO BRASILEIRA DE EDUCAÇÃO E ASSISTÊNCIA, MANTENEDORA DA …, priority 2013, dated 2017).

Columns and labels:
hUP1 = hUP1 (Homo sapiens, UniProt Q16831); test: isothermal titration microcalorimetry (ITC), free enzyme; assay type: binding
Procedure: (§1) For determining the thermodynamic parameters (enthalpy variation—ΔH, entropy variation—ΔS, and free energy variation of Gibbs—ΔG) were performed compounds binding essays to the enzyme in different conditions: free enzyme, complexed enzyme with the substrate Pi, and the complexed enzyme with the product ribose-1-phosphate (R1P). For such analyses, it was used isothermal titration microcalorimetry (ITC) where the equipment monitors the difference of transferred heat, between the reference cell and the sample cell, when bindings are formed or broken during the binding process. The data analysis achieved was performed through the model One Set of Sites and the determination of ΔG and the dissociation constant (KD) were through the equations (IV) and (V) below, respectively: ΔG=ΔH−TΔS (IV) KD=1/Ka (V)

hUP1-R1P = hUP1-R1P (Homo sapiens, UniProt Q16831); test: isothermal titration microcalorimetry (ITC), enzyme complexed with product ribose-1-phosphate; assay type: binding
hUP1-R1P, sequence (Q16831 whole entry): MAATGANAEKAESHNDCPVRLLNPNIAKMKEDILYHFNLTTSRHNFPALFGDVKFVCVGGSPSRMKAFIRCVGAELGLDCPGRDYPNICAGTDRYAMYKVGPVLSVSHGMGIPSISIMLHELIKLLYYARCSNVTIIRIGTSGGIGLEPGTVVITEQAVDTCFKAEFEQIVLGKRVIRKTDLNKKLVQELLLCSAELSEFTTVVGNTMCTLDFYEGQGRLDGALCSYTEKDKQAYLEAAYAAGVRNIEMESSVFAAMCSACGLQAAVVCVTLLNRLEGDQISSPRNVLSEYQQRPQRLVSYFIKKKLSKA
Procedure: as §1

hUP1-Pi = hUP1-Pi (Homo sapiens, UniProt Q16831); test: isothermal titration microcalorimetry (ITC), enzyme complexed with substrate Pi; assay type: binding
hUP1-Pi, sequence (Q16831 whole entry): as above
Procedure: as §1

[1] = target: T1, Human Phosphorylase Uridine 1 (hUP1) (Homo sapiens, UniProt Q16831); test: Ki and inhibition type from substrate saturation curves, double-reciprocal analysis; assay type: biochemical; settings: for Inhibiting type for phosphate: substrate Pi; for Inhibition type for uridine: substrate uridine
T1 sequence (Q16831 whole entry): as above
Procedure: (§2) The enzymatic activity of the hUP1 is performed through the enzymatic essay using one spectrophotometer UV/visible where the absorbance reduction of uridine in 280 nm, for 1 min and at 37° C. was monitored.
For determining Ki for the selected inhibitors, we performed saturation curves where the concentration of one of the substrates is fixed next to the Km and the concentration of another, varied until the saturation in fixed-varying concentrations of each one of the inhibitors.
(I) v=VA/[Ka(1+I/Kii)+A(1+Kis)] (II) v=VA/[A(1+I/Kis)+Ka] (III)

[2] = target: T1, Human Phosphorylase Uridine 1 (hUP1); settings: literature value, said to be confirmed by own experiments; read-out: constant inhibition for uridine described on the literature; cited from earlier work
[3] = test system: intestinal mucositis caused by 5-FU; test: intestinal mucositis model caused by 5-FU (weight, diarrhea, villus histology); assay type: in vivo, female Wistar mouse; settings: 5 days
Procedure: The compound c3 was tested in in vivo for evaluating its protection regarding intestinal mucositis caused by 5-FU. The mucositis model was developed in female Wistar mouse (180-200 g) and the animals were divided into 5 groups with 4 animals in each group: Group 1: Saline+Saline Group 2: Compound c3 (150 mg/kg)+saline Group 3: Saline+5-FU (50 mg/kg) Group 4: Compound c3 (50 mg/kg)+5-FU (50 mg/kg) Group 5: Compound c3 (150 mg/kg)+5-FU (50 mg/kg) The test compound was administrated via oral, 30 minutes before administrating the chemotherapeutic 5-FU that was administrated via intraperitoneal. This treatment was followed for 5 days with once a day administrations. In the 5th treatment day, the animals were euthanized using one inhalational anesthetic (isoflurane) and the initial portion of the intestine (corresponding to jejunum and ileus) was collected for myeloperoxidase analysis (MPO) and histological analysis of the tissue, as well blood collect for quantification analysis of the uridine in the plasma. The animals were also followed-up regarding weight loss and diarrhea.

plasma uridine = test: uridine concentration in animals' plasma by HPLC (mucositis model); assay type: in vivo, female Wistar mouse; settings: compound orally, either 50 mg/kg or 150 mg/kg
Procedure: The test compound was administrated via oral, 30 minutes before administrating the chemotherapeutic 5-FU that was administrated via intraperitoneal. This treatment was followed for 5 days with once a day administrations. In the 5th treatment day, the animals were euthanized using one inhalational anesthetic (isoflurane) and the initial portion of the intestine (corresponding to jejunum and ileus) was collected for myeloperoxidase analysis (MPO) and histological analysis of the tissue, as well blood collect for quantification analysis of the uridine in the plasma. The animals were also followed-up regarding weight loss and diarrhea.
The determination of the uridine concentration in the animals' plasma as performed by HPLC, using as mobile phase acetic acid 0.1%. First, it was made a calibration curve using commercial uridine as standard (Sigma) in the concentrations of 0.625-1.25-2.5-5.0-10.0-20.0 μM in mice plasma to keep the same matrix where the samples ones are. After the calibration curve, the plasma samples were analyzed of each group and was one positive result was achieved. As was expected, there was an increase of 4.4 times in the uridine concentration in the animals' plasma that received the compound orally, either in the dose of 50 mg/kg or in the dose of 150 mg/kg (FIGS. 5A and 5B). […]

[4] = test system: myeloperoxidase (MPO) in initial portion of the intestine; test: MPO analysis in repeated mucositis model; assay type: in vivo; settings: 50 mg/kg orally of 8-8 h, starting 2 days before 5-FU and 2 further days with 5-FU
Procedure: The last in vivo analysis was regarding the MPO. The MPO is a primary answer of inflammation, present in neutrophils, and for that it was analyzed which is the best day of euthanasia to check this primary answer. The treatment schema lasted 5 days, where the animals were divided into 2 groups with 10 animals in each (Group Saline and Group 5-FU). The 5-FU (50 mg/kg) was administrated using the intraperitoneal via, as well the Saline. The animals were put into euthanasia in 24 h, 48 h, 72 h, 96 h and 120 h after the administration (days 1-5) and the initial portion of the intestine was collected. It was verified that the best day for MPO quantification would be day 2 (48 h after 5-FU administration), such as represented in the FIG. 6, in which the statistical analysis was performed though one-way ANOVA followed by Bonferroni test. The lines represent the standard error while each column represents the mean of two animals of each group. *Significant difference regarding group Saline (*p<0.05).
The first experiment of mucositis was repeated, with 3 groups having 5 animals in each (Group Saline+Saline, Group Saline+5-FU and Group Compound c3+5-FU). […] The animals were euthanized with isoflurane and the initial portion of the intestine was analyzed. […]

[5] = target: T1, Human Phosphorylase Uridine 1 (hUP1); test: hUP1 enzymatic assay, inhibition at 1 μM (UV absorbance of uridine at 280 nm); assay type: biochemical; settings: 1 μM compound, 37° C.
Procedure: as §2
For determining which inhibitors would be selected for determining the inhibition constant (Ki), one cut point of 1 μM was stipulated, where only those compounds that would inhibit more than 60% of the initial activity of the enzyme would be selected for this type of analysis (Table 1). From all compounds tested, 7 molecules had its inhibition above 60% with the concentration of 1 μM (Compounds c1, c2, c3, c4, c6, c12, and c13). All essays described on this patent application were performed for these compounds and for benzil acyclo uridine (BAU), in order to perform a direct comparison of the results achieved with the better in vitro inhibitor of the hUP1 described (standard).

[6] = c3 50 or 150 mg/kg oral 30 min before 5-FU 50 mg/kg intraperitoneal, once a day

hUP1, sequence (Q16831 whole entry): as above

Kd (hUP1-R1P; hUP1-R1P 50 μM) [nM] | ΔG° (hUP1-R1P; hUP1-R1P 50 μM) [kcal/mol] | ΔH° (hUP1-R1P; hUP1-R1P 50 μM) [kcal/mol] | Kd (hUP1-R1P; hUP1-R1P 150 μM) [nM] | ΔG° (hUP1-R1P; hUP1-R1P 150 μM) [kcal/mol] | ΔH° (hUP1-R1P; hUP1-R1P 150 μM) [kcal/mol] | Kd (hUP1-Pi) [nM] | ΔG° (hUP1-Pi) [kcal/mol] | ΔH° (hUP1-Pi) [kcal/mol] | −TΔS (kcal/mol/deg) (hUP1-Pi) | Inhibiting type for phosphate [1] | Inhibition type for uridine [1] | SMILES | other results
1200 ± 244 | -8.2 ± 1.7 | -12 ± 0.3 | 6600 ± 898 | -7.3 ± 1.0 | -20 ± 0.7 | 1400 ± 239 | -8.2 ± 1.4 | -13 ± 0.3 | 4.6 ± 0.8 | Not competitive | Competitive | O=c1[nH]c(=O)n(COCCO)cc1Cc1ccccc1 [BAU, benzil acyclo uridine, reference compound] | Kd (hUP1): 1200 ± 150 nM; ΔG° (hUP1): -8.4 ± 1.0 kcal/mol; ΔH° (hUP1): -10 ± 0.1 kcal/mol; −TΔS (kcal/mol/deg) (hUP1): 1.5 ± 0.2 kcal/mol/deg; Ki [2]: 100 nM
1400 ± 341 | -8.3 ± 2.0 | -31 ± 1.2 | 40 | -9.8 ± 1.4 | -21 ± 0.1 | 12000 ± 1400 | -6.9 ± 0.8 | -19 ± 1.3 | 12 ± 1.4 | Uncompetitive | Not competitive | Cc1cc(O)[nH]c(=O)c1C#N [Compound c3] | intestinal villus size (histological analysis) ([3]; both tested doses (50 and 150 mg/kg oral) + 5-FU 50 mg/kg intraperitoneal): statistically equal to the group Saline and different from the group 5-FU; protection from diarrhea caused by 5-FU [3, 6]: not able to avoid these side effects; protection from weight loss caused by 5-FU [3, 6]: not able to avoid these side effects; −TΔS (kcal/mol/deg) (hUP1-R1P; hUP1-R1P 50 μM): 22 ± 5.4 kcal/mol; −TΔS (kcal/mol/deg) (hUP1-R1P; hUP1-R1P 150 μM): 11 ± 1.5 kcal/mol; Kd (hUP1-R1P; hUP1-R1P 200 μM): 20 nM; ΔG° (hUP1-R1P; hUP1-R1P 200 μM): -11 ± 1.3 kcal/mol; ΔH° (hUP1-R1P; hUP1-R1P 200 μM): -22 ± 0.1 kcal/mol; −TΔS (kcal/mol/deg) (hUP1-R1P; hUP1-R1P 200 μM): 11 ± 1.3 kcal/mol; increase in the uridine concentration in the animals' plasma (plasma uridine): 4.4 times; MPO, primary inflammation process [4]: not able to revert the primary inflammation process; Inhibition with 1 μM (%) [5]: 70%; inhibition at 1 µM [5]: > 60%
